Reference: US20170267727A1, “Conjugates of pH Low Insertion Peptide and Monomethyl Auristatins in the Treatment of Solid Tumors” (Lehigh University, priority 2016, published 2017)
“Also recorded” adds a separate entry of the source. Positions of bridges follow the written chain, without caps; N, C: chain ends. Non-standard residues stand in square brackets, D forms with d. Chains are numbered I, II in the order given. *: point of attachment. Dolaproine = CO[C@@H]([C@@H]1CCCN1)[C@@H](C)C(=O)O; Dil = CC[C@H](C)[C@H](NC)[C@@H](CC(=O)O)OC; X1 = C[C@@H](N*)[C@@H](O)c1ccccc1; NMeV = CN[C@H](C(=O)O)C(C)C; Mpa = O=C(O)CCS

What was measured:
[1] = test system: MDA-MB-231 cells; test: Anti-proliferation Assay (2 hours treatment at pH 7.4 or 5.0, 72 hours growth, MTT); conditions: for cell killing (printed 49% versus 100%): 1.25 μM treatment
Protocol: FIG. 3A, FIG. 3C and FIG. 3E show HeLa cells treated with pHLIP(WT)-MMAE, pHLIP(D25E)-MMAE, and MMAE(linker), respectively. FIG. 3B, FIG. 3D and FIG. 3F show MDA-MB-231 cells treated with pHLIP(WT)-MMAE, pHLIP(D25E)-MMAE, and MMAE(linker), respectively. Black columns represent cells treated at pH 7.4 and cells treated at low pH are shown in grey. For each condition, 3,000 cells/well (96-well plate) were seeded, allowed to adhere overnight, treated for 2 hours, washed once with media and grown for 72 hour in complete medium at physiologic pH. Cell viability was assessed with the MTT assay. All measurements were normalized to the media control (0 μM, pH 7.4), as 100% cell viability. Results are shown as mean±SD (n=6-9).
Anti-proliferation Assay. HeLa and MDA-MB-231 cells were seeded in 96-well plates at a density of 3,000 cells/well and incubated overnight. Before treatment, construct aliquots were solubilized in an appropriate volume of DMEM without FBS (pH 7.4)—so that upon pH adjustment the desired treatment concentration is obtained—and gently sonicated for 30-60 seconds using a bath sonicator (Branson Ultrasonics). After removal of cell media, this treatment solution was added to each well and incubated at 37° C. for 5-10 minutes. The pH was then adjusted to the desired value using a pre-established volume of DMEM, pH 2.0 buffered with citric acid (final volume=50 μL) and the plate was incubated at 37° C. for 2 hours. After treatment, the media was removed, cells were washed once with 100 μL of complete DMEM, and 100 μL of complete medium was added to each well before returning the plate to the incubator. Treatment solutions were collected and their pH values measured using a micro-combination pH probe (Microelectrodes, Inc.). […] Cell viability was determined after 72 hours using the colorimetric MTT assay. Briefly, 10 μL of a 5 mg/mL MTT stock solution was added to the treated cells and incubated for 2 hours at 37° C. The resulting formazan crystals were solubilized in 200 μL DMSO and the absorbance measured at 580 nm using an Infinite 200 PRO microplate reader (Tecan). Cell viability was calculated against control cells treated with media at physiologic pH.
Inhibition of Cell Proliferation. The ability of pHLIP to move MMAE across the cell membrane and to inhibit cancer cell proliferation in concentration and pH-dependent manners was evaluated. Cell treatments for both pHLIP(WT)-MMAE and pHLIP(D25E)-MMAE constructs were carried out with conjugate concentrations ranging from 1.25 to 10 μM at either pH 7.4 or 5.0. After a 2-hour incubation at 37° C., the treatment media was replaced by fresh media, and cells were grown for an additional 72 hours at normal pH before assessing cell viability using the MTT assay. […] This treatment protocol is quite stringent when compared to the typical multi-days exposure treatments used with free drugs (FIG. 6A and FIG. 6B).

[2] = test system: HeLa cells; conditions: 10 μM, 2 hours, pH 7.4 or pH 5.0
Protocol: (§1) The integrity of the plasma membrane is assessed by the uptake of trypan blue dye. 3,000 cells/well of HeLa (FIG. 4A) and MDA-MB-231 (FIG. 4B) cells were seeded, allowed to adhere overnight and treated with 10 μM conjugates or media alone (no peptide) for 2 hours at pH 7.4 (black bars) or pH 5.0 (grey bars). Cells were detached and counted based on trypan blue uptake with a hemacytometer: % of intact cells corresponds to the number of cells not showing any dye uptake over the total number of cells. Results are shown as mean±SD (n=4).
(§2) Cell Membrane Integrity Assay. HeLa and MDA-MB-231 cells were seeded in 96-well plates at a density of 3,000 cells/well and incubated until confluent (˜72 hours). Before treatment, construct aliquots were solubilized in an appropriate volume of DMEM without FBS (pH 7.4) so that upon pH adjustment 10 μM is obtained. Cell media was removed, the treatment solution was added to each well and cell were incubated at 37° C. for 5-10 minutes. The pH was then adjusted to the desired value using a pre-established volume of DMEM, pH 2.0 buffered with citric acid (final volume=50 μL). The plate was incubated at 37° C. for 2 hours. After treatment, the media was removed, cells were detached using trypsin and counted based on trypan blue uptake using a hemacytometer.

[3] = test system: MDA-MB-231 cells; conditions: 10 μM, 2 hours, pH 7.4 or pH 5.0
Protocol: as §1, §2

[4] = Construct Stability HPLC in Cell Media; assay type: physicochemical; conditions: 10 μM, 2 h at pH 5.0 and 37° C.
Protocol: FIG. 8A, FIG. 8B, and FIG. 8C show Purity check and Chemical stability of pHLIP-MMAE conjugates. (FIG. 8A) and (FIG. 8B): HPLC traces of pHLIP(WT)-MMAE and pHLIP(D25E)-MMAE, respectively: Purified conjugates (upper panels), 10 μM of conjugate in cell media (middle panels) and after incubation in cell media for 2 h at pH 5.0 and 37° C. (lower panels). The small peak observed around 27 min in (FIG. 8B) upper panel corresponds to some residual free pHLIP (<15%), which is known to not be cytotoxic (FIG. 7). (FIG. 8C) HPLC traces of Alexa750-pHLIP(WT)-MMAE: Purified conjugate (upper panel), 10 μM Alexa 750-pHLIP(WT)-MMAE before (upper panel) and after 48 h incubation in mouse serum at 37° C. (lower panel). Purity checks and chemical stability runs were performed on different column and with different flow rate, explaining the difference in retention times and peak broadness (see Experimental Section). […]
Peptide solutions were incubated at either pH 7.4 or pH 5.0 (37° C. and 5% CO2) and 100 μL aliquots were monitored via RP-HPLC at various time points (Agilent Eclipse XDB-C18 […] 9.4×250 mm; flow rate 2 mL/min; phase A: water 0.01% TFA; phase B: acetonitrile 0.01% TFA; gradient 45 min from 95/5 A/B to 0/100 A/B). […] The stability of Alexa750-pHLIP(WT)-MMAE was determined in mouse serum by solubilizing the construct to incubating it at 37° C. and monitoring via RP-HPLC at specific time points.

| Substance | cell killing (printed 49% versus 100%) [1] [%] | inhibition of proliferation ([1]; normal pH) | disruption of the plasma membrane [2] | disruption of the plasma membrane [3] | degradation in cell media by HPLC or mass spectroscopy [4] |
| --- | --- | --- | --- | --- | --- |
| I: H-AAEQNPIYWARYADWLFTTPLLLLDLALLVDADEGTCG-OH / II: [Mpa][NMeV]V[Dil][Dolaproine]-X1 (disulfide I:37-II:1) [pHLIP(WT)-MMAE] | 100 | no significant inhibition of proliferation | neither conjugates, nor low pH treatment, caused disruption of the membranes | neither conjugates, nor low pH treatment, caused disruption of the membranes | No significant degradation; also recorded: no degradation products are observed |
| I: H-AAEQNPIYWARYADWLFTTPLLLLELALLVDADEGTCG-NH2 / II: [Mpa][NMeV]V[Dil][Dolaproine]-X1 (disulfide I:37-II:1) [pHLIP(D25E)-MMAE] | 49 |  | neither conjugates, nor low pH treatment, caused disruption of the membranes | neither conjugates, nor low pH treatment, caused disruption of the membranes | No significant degradation; also recorded: no degradation products are observed |
